The test system of data set [1] is osteoclast differentiation. Put plainly: Inhibitory effect on osteoclast differentiation, co-culture of bone marrow cells and osteoblast, TRAP staining. The class given is cell-based, mouse. Particulars: for inhibition at 1 µM: Mus musculus, Osteoclast, 168 h, read-out: inhibitory effect on osteoclast differentiation(%). As for the experimental part: The effect of the benzamidine derivative of the present invention on osteoclast formation and differentiation process was evaluated via co-culture with an osteoblast.
Tibia was aseptically ectomized from male 6 to 8-week-old ddY mice to harvest bone marrow cells by using a syringe (21G, Korea Green Cross). The bone marrow cells were suspended in 5 mL of an α-MEM medium (Gibco BRL Co., added with sodium bicarbonate (2.0 g/L), streptomycin (100 mg/L) and penicillin ([…]), filtered and then sterilized). The harvested cells were centrifuged at 600×g for 5 mins to collect the whole quantity. To remove the red blood cells in the bone marrow cells, 3 mL of Tris HCl (0.83% NH4Cl, pH 7.5) was added and well mixed. After centrifuging above cells, the numbers of the eukaryotic cells in the harvested bone marrow cells were counted and then immediately used for a co-culture system.
The progenitor bone and the parietal bone were aseptically ectomized from 1 to 2-day-old neonate ICR mice, washed with a phosphate butter solution (PBS) and treated with a mixed enzyme solution (of 0.2% collagenase and 0.1% dispase) sequentially (10, 10, 10, 20, 20 and 20 min), and then 3 to 6 groups of the cells which comprise lot of cells having the characteristics of the osteoblast were intensively collected and washed with a medium (a serum-free α-MEM). The washed cells were cultured in the α-MEM medium containing 10% FBS for 2 to 3 days. After subculturing, the collected cells were used for this experiment, and diluted to a concentration of 1×10^6 cells/mL for storage at −70[…].
The benzamidine derivative of the present invention was dissolved in a sterile distilled water or ethanol to dilute to a desired concentration. The final volume of the sample added to the cell culture medium was set at a ratio of 1:1000.
The bone marrow cells prepared in the above 1-1 and the osteoblast were co-cultured for osteoclast differentiation. Both the bone marrow cells (25,000 cells/cm^2) and the osteoblast (10,000 cells/cm^2) were plated in a 96-well plate using α-MEM medium containing FBS, and then cultured with the samples to be tested for 7 days. Differentiation factors, such as dexamethasone (10^−7 M) and vitamin D3 (10^−8 M), were also co-added to the medium from the first day of cultivation. The medium was changed with a fresh media containing a mixture of the samples and the differentiation factors every 2 to 3 days.
TRAP was used as a marker to measure the matured osteoclast in consideration of its characteristics showing a positive reaction to a TRAP staining solution. The TRAP staining solution was prepared in such the manner that 5 mg of naphtol AS-MS phosphate (sigma N-4875) as a substrate, and 25 mg of a coloring agent (Fast Red Violet LB salt) were dissolved in N,N-dimethylformamide (about 0.5 mL). 50 ml of a 0.1 N NaHCO3 buffer solution containing 50 mM tartaric acid (pH 5.0) was added thereto, and the mixture was stored at a refrigerator prior to use as a staining solution.
After culturing the cells for 7 days, the medium was removed from the wells, the cells were once washed with PBS, and then fixed with PBS containing 10% formalin for 2 to 5 min. The cells were fixed again in a mixed solution of ethanol and acetone (1/1) for about 1 min, and dried off. The cells were further treated by the TRAP staining solution for 15 mins and washed with water and dried off. The osteoclasts with 3 or more nuclei showing a TRAP-positive reaction were counted under a microscopic examination. Each of tests was confirmed over at least three times. The inhibitory effect on osteoclast differentiation of each experimental group, relative to negative controls, was expressed as a percentage (%).

A further data set concerns MC3T3. Put plainly: Cytotoxicity test (MTT), MC3T3. The settings on record: 10^−6M, 72 hrs, in comparison with the control group. The class given is cell-based. As for the experimental part:
(§1) The cytotoxic effect of the benzamidine derivative of the present invention was evaluated by carrying out the experiment described below.
(§2) The test substance was diluted in an appropriate solvent at a 10^−2 M concentration. This substance was diluted in an appropriate culture medium for the cells used in the cytotoxicity test to a concentration of […], and loaded into a 96-well plate in 100 μl per well. The cell lines to be used in the cytotoxicity test were plated on a 96-well plate in a dose of 1.0×10^4 cells/1OO μl per well and cultured for 72 hrs. 25 μl of MTT [3-(4,5-dimethyl-2-thiazolyl)-2,5-diphenyl-2H-tetrazolium bromide] dissolved in PBS (2 mg/mL) were added before 4 hrs of the end of culture. After completion of the reaction, the plates were centrifuged, the medium was discarded and 100 μl of DMSO was added to dissolve formazan. Finally, the absorbance of the developed plates was measured at 540 nm. The survival rates of the cells were expressed as % concentration values in comparison with the control group.

A further data set relates to calvaria. Put plainly: Cytotoxicity test (MTT), calvaria. Type of data set: cell-based. Particulars: 10^−6M, 72 hrs, in comparison with the control group. The procedure: as §1, §2
The subject of a further data set is HOS. Put plainly: Cytotoxicity test (MTT), HOS. Type of data set: cell-based. The settings on record: 10^−6M, 72 hrs, in comparison with the control group. As for the experimental part:
as §1, §2

[2] abbreviates: 1 μm, 7 days co-culture, TRAP-positive osteoclasts with 3 or more nuclei, relative to negative controls.

19 compounds from US7943646B2, “Benzamidine derivative, process for the preparation thereof and pharmaceutical composition comprising same” (Dong Wha Pharmaceutical Co., Ltd., priority 2006, dated 2011) can be followed below.

Where two headings read alike, the source gives them in different places.

Take `CC(C)c1nc(-c2ccc(OCCCCCOc3ccc(C(=N)NO)cc3)cc2)c(CCNCCCn2ccnc2)s1` [Example 31, N-hydroxy-4-[5-(4-{5-[2-(3-imidazol-1-yl-propylamino)-ethyl]-2-isopropyl-thiazol-4-yl}-phenoxy)-pentyloxy]-benzamidine]: in data set [1], the inhibition at 1 µM was found to be 97%.

As to `CC(C)c1nc(-c2ccc(OCCCCCOc3ccc(C(=N)NO)cc3)cc2)c(CCN2CCSCC2)s1` [Example 32, N-hydroxy-4-(5-{4-[2-isopropyl-5-(2-thiomorpholin-4-yl-ethyl)-thiazol-4-yl]-phenoxy}-pentyloxy)-benzamidine], the inhibition at 1 µM in data set [1] was found to be 97%.

On to `CN1CCN(CCc2sc(C3CCCCC3)nc2-c2ccc(OCCCCCOc3ccc(C(=N)NO)cc3)cc2)CC1` [Example 34, N-hydroxy-4-[5-(4-{2-cyclohexyl-5-[2-(4-methyl-piperazin-1-yl)-ethyl]-thiazol-4-yl}-phenoxy)-pentyloxy]-benzamidine], for which the inhibition at 1 µM in data set [1] was determined as 100%. For `Cc1nc(-c2ccc(OCCCCOc3ccc(C(=N)NO)cc3)cc2)c(CCN2CCOCC2)s1` [Example 44, N-hydroxy-4-(4-{4-[2-methyl-5-(2-morpholin-4-yl-ethyl)-thiazol-4-yl]-phenoxy}-butoxy)-benzamidine], the “survival rates of the cells” value in the data set on MC3T3 is 101.3%; in the data set with calvaria, 90.6%; in the data set with HOS it was 105.6%. Regarding `N=C(N)c1ccc(OCCCCCOc2ccc(-c3nc(C4CCCCC4)sc3CCN3CCOCC3)cc2)cc1` [Example 45, 4-(5-{4-[2-cyclohexyl-5-(2-morpholin-4-yl-ethyl)-thiazol-4-yl]-phenoxy}-pentyloxy)-benzamidine], the “survival rates of the cells” value is on record as 108.2% with MC3T3, 90.5% with calvaria and 106.9% in the data set on HOS. For the compound `CNc1nc(-c2ccc(OCCCCCOc3ccc(C(=N)NO)cc3)cc2)c(CCN2CCN(C)CC2)s1` [Example 48, N-hydroxy-4-[5-(4-{2-methylamino-5-[2-(4-methyl-piperazin-1-yl)-ethyl]-thiazol-4-yl}-phenoxy)-pentyloxy]-benzamidine], the inhibition at 1 µM in data set [1] (setting [2]) is 60.6%. As for `CNc1nc(-c2ccc(OCCCCCOc3ccc(C(=N)NO)cc3)cc2)c(CCN2CCSCC2)s1` [Example 49, N-hydroxy-4-(5-{4-[2-methylamino-5-(2-thiomorpholin-4-yl-ethyl)-thiazol-4-yl]-phenoxy}-pentyloxy)-benzamidine], the inhibition at 1 µM in data set [1] (setting [2]) came to 84%.

Turning to `CNc1nc(-c2ccc(OCCCCCOc3ccc(C(=N)N)cc3)cc2)c(CCN2CCOCC2)s1` [Example 52, 4-(5-{4-[2-methylamino-5-(2-morpholin-4-yl-ethyl)-thiazol-4-yl]-phenoxy}-pentyloxy)-benzamidine], the “survival rates of the cells” value with MC3T3 is given as 115.6%; with calvaria it was 100.1%; in the data set on HOS, 98.8%.

As for `CN(C)c1nc(-c2ccc(OCCCCCOc3ccc(C(=N)NO)cc3)cc2)c(CCN2CCSCC2)s1` [Example 54, N-hydroxy-4-(5-{4-[2-dimethylamino-5-(2-thiomorpholin-4-yl-ethyl)-thiazol-4-yl]-phenoxy}-pentyloxy)-benzamidine], the inhibition at 1 µM in data set [1] (setting [2]) is 88%.

`CC(C)C(=O)N(C)c1nc(-c2ccc(OCCCCCOc3ccc(C(=N)NO)cc3)cc2)c(CCN2CCOCC2)s1` [Example 55, N-hydroxy-4-(5-{4-[2-(isobutyryl-methyl-amino)-5-(2-morpholin-4-yl-ethyl)-thiazol-4-yl]-phenoxy}-pentyloxy)-benzamidine]: the inhibition at 1 µM in data set [1] (setting [2]) was determined as 69%. Same read-out and setting: then `N=C(NO)c1ccc(OCCCCCOc2ccc(-c3nc(N4CCOCC4)sc3CCN3CCSCC3)cc2)cc1` [Example 60, N-hydroxy-4-(5-{4-[2-morpholin-4-yl-5-(2-thiomorpholin-4-yl-ethyl)-thiazol-4-yl]-phenoxy}-pentyloxy)-benzamidine], with 88%; and `CN1CCN(CCc2sc(N3CCOCC3)nc2-c2ccc(OCCCCCOc3ccc(C(=N)NO)cc3)cc2)CC1` [Example 61, N-hydroxy-4-[5-(4-{5-[2-(4-methyl-piperazin-1-yl)-ethyl]-2-morpholin-4-yl-thiazol-4-yl}-phenoxy)-pentyloxy]-benzamidine], with 76%. Take `N=C(N)c1ccc(OCCCCCOc2ccc(-c3nc(N4CCOCC4)sc3CCN3CCOCC3)cc2)cc1` [Example 64, 4-(5-{4-[2-morpholin-4-yl-5-(2-morpholin-4-yl-ethyl)-thiazol-4-yl]-phenoxy}-pentyloxy)-benzamidine]: the “survival rates of the cells” value was 119.8% in the data set on MC3T3, 99.4% with calvaria and 107.8% with HOS. With `Cc1nc(-c2ccc(OCCCCCOc3ccc(C(=N)NO)cc3)cc2)c(CCN(CC(C)C)C(=O)c2cccnc2)s1` [Example 66, N-hydroxy-4-{5-[4-(5-{2-[isobutyl-(pyridine-3-carbonyl)-amino]-ethyl}-2-methyl-thiazol-4-yl)-phenoxy]-pentyloxy}-benzamidine], the “survival rates of the cells” value came to 111.1% with MC3T3, 99.0% in the data set with calvaria and 105.9% in the data set with HOS.

For the compound `CC(C)c1nc(-c2ccc(OCCCCCOc3ccc(C(=N)NO)cc3)cc2)c(CCN(C(=O)c2ccncc2)C2CC2)s1` [Example 67, N-hydroxy-4-{5-[4-(5-{2-[cyclopropyl-(pyridine-4-carbonyl)-amino]-ethyl}-2-isopropyl-thiazol-4-yl)-phenoxy]-pentyloxy}-benzamidine], the “survival rates of the cells” value in the data set with MC3T3 was determined as 80.7%; in the data set with calvaria, 95.3%; with HOS, 97.5%. Take `CNC(=O)c1sc(C)nc1-c1ccc(OCCCCCOc2ccc(C(=N)NO)cc2)cc1` [Example 69]: the “inhibitory effect on osteoclast differentiation(%)” value in data set [1] (setting [2]) is on record as 90.3%. `Cc1nc(-c2ccc(OCCCCCOc3ccc(C(=N)NO)cc3)cc2)c(C(=O)NC(C)C)s1` [Example 70, N-hydroxy-4-{5-[4-(5-isopropylcarbamoyl-2-methyl-thiazol-4-yl)-phenoxy]-pentyloxy}-benzamidine]: the inhibition at 1 µM in data set [1] (setting [2]) is 84.8%. Still for that read-out and setting: then `Cc1nc(-c2ccc(OCCCCCOc3ccc(C(=N)NO)cc3)cc2)c(C(=O)NCCCn2ccnc2)s1` [Example 71, N-hydroxy-4-{5-[4-(5-{3-imidazol-1-yl-propylcarbamoyl}-2-methyl-thiazol-4-yl)-phenoxy]-pentyloxy}-benzamidine], with 90.4%.

Take “N-hydroxy-(5-{4-[5-(2-isobutyrylamino-ethyl)-2-methyl-thiazol-4-yl]-phenoxy}-pentyloxy)-benzamidine [Example 65]”: the “inhibitory effect on osteoclast differentiation(%)” value in data set [1] (setting [2]) turned out to be 29%.
